The target in experiment [1] is peripheral site of eeAChE (Electrophorus electricus (Electric eel) (Gymnotus electricus), UniProt O42275). The experiment is classed as binding.
Method: When propidium diiodide binds to the peripheral site of AChE, it produces an increase in fluorescence which can be used as proof of its binding to the enzyme. Fluorescence measurements are made in 200 μL of solution in 96-well plates using a Tecan Infinite M2000 microplate reader. […] 50 μL of micromolar solution of propidium diiodide are added before measuring fluorescence. […] Each test is repeated at least three times.
In experiment [2] the target is 5-HT4 receptor (Homo sapiens (Human), UniProt Q13639). Briefly: Agonist nature as regards the 5-HT4 receptor: accumulation of intracellular cyclic AMP in stably transfected CHO cells. The conditions noted are these: percentage of agonist effect in relation to serotonin. The class given is cell-based.
5-HT4 receptor, sequence (Q13639 whole entry): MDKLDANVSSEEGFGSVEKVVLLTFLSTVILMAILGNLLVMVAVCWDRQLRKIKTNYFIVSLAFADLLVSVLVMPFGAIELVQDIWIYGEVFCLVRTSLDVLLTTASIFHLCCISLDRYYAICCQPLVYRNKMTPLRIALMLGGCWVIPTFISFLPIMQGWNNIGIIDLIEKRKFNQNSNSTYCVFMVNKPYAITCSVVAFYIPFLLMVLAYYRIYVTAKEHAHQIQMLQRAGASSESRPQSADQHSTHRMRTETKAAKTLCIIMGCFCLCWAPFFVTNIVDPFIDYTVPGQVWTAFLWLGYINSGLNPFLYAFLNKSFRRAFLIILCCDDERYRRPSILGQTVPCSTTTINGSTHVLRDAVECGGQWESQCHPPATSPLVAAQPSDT
The target of experiment [3] is human acetylcholinesterase (Homo sapiens (Human), UniProt P22303). Briefly: biochemical. The experiment is classed as biochemical. The note with it: acetylcholinesterase from human erythrocytes.
human acetylcholinesterase, sequence (P22303 32-574 with tags or gaps limits assumed): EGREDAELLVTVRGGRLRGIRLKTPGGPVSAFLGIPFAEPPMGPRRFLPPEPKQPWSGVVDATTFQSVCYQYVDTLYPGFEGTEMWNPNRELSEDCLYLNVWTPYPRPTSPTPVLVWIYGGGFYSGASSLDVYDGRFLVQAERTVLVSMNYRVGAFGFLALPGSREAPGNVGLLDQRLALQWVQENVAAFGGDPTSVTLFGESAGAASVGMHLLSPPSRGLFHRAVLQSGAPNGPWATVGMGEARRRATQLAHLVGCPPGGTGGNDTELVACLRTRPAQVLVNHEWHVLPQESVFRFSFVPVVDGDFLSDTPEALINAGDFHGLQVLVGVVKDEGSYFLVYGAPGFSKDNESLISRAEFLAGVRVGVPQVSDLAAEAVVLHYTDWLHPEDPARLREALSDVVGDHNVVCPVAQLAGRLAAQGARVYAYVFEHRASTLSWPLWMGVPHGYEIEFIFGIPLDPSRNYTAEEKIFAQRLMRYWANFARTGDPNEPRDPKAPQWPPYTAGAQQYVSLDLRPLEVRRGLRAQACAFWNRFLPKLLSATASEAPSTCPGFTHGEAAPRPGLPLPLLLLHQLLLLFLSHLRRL
Method: 100 μL of a 0.3 mM 5,5-dithiobis(2-nitrobenzoic acid) (DTNB) solution in a pH 7.4 phosphate buffer are introduced into a 96-well plate, followed by 50 μL of compound to be tested in solution in DMSO and 50 μL of enzyme solution. After 5 min of preincubation, the reaction is initiated by injecting 50 μL of 10 mM acetylthiocholine iodide solution. […] Donepezil is used as a reference product.
Experiment [4] concerns the target 5-HT4 receptors (Cavia porcellus (Guinea pig), UniProt O70528). Briefly: Affinity as regards 5-HT4 receptors: competition against [3H]-GR113808 on striatal membranes. The experiment is classed as binding.
Experiment [5] concerns male NMRI mice. Briefly: Object recognition test. The class given is in vivo. The conditions noted are these: intraperitoneal, 30 minutes before the acquisition session.
Method: The tests are performed using male NMRI mice of around 3 months old at the time of the tests.
The object recognition test is based on the spontaneous preference of rodents for novelty, without bringing food deprivation or electric shock into play.
The device comprises a square PVC enclosure (33×33×20 cm, illuminated at 10 lux in the center) with black surfaces. The test is performed in 2 phases: one habituation phase, allowing the animals to become habituated to the test environment (enclosure, room, experimenter), the other a memory performance assessment phase. A camera is positioned above the device and connected to a video-tracking system (ViewPoint®). During the behavioral tests, the experimenter is not present in the experimentation room but remains in an adjacent room that houses the video-tracking system.
After a habituation phase (Day 1, individual exposure for 5 minutes to the open-field with no objects), the memory performance assessment phase begins on the 2nd day and is made up of 2 sessions, one the presentation session and the other the test session. […] The exploration time of each object, A1 and A2 respectively, as well as the time required to achieve the exploration criterion are measured. […] The time required to achieve the exploration criterion as well as the exploration time of the new object are measured and the latter is compared to the chance level (15 s). […]
[6] abbreviates: 10^-5 M solution of compound, eeAChE, propidium diiodide fluorescence.

Where two headings read alike, the source gives them in different places.

peripheral site of eeAChE, sequence (O42275 whole entry, looked up): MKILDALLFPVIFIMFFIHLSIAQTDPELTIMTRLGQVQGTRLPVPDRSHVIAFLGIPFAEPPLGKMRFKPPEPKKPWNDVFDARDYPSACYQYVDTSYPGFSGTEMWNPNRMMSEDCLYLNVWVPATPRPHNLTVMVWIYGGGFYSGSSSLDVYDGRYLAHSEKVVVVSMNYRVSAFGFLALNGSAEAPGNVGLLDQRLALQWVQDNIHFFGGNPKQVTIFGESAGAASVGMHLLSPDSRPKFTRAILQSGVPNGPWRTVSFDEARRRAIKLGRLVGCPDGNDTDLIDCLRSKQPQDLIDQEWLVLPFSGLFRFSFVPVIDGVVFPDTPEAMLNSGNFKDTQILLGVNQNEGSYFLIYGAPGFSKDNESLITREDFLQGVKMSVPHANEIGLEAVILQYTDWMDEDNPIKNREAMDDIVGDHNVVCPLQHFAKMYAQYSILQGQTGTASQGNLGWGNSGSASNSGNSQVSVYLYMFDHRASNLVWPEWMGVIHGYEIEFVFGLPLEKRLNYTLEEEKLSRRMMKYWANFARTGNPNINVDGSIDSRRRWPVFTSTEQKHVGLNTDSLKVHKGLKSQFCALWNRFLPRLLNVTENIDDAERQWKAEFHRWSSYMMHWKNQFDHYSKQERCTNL
5-HT4 receptors, sequence (O70528 whole entry): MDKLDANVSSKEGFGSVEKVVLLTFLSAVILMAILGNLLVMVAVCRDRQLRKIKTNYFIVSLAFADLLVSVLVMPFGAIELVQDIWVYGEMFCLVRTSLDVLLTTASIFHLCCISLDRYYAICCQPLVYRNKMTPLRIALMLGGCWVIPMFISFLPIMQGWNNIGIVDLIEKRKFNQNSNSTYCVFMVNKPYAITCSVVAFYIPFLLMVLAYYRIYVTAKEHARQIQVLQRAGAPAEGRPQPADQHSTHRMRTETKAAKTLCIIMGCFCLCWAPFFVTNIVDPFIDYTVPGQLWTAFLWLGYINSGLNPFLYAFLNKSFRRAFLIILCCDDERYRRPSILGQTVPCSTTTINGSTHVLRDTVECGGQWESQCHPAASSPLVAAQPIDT

Turning to `COc1cc(N)c(Cl)cc1C(=O)CCC1CCN(CC2CCCC2)CC1` [Compound 8, 1-(4-amino-5-chloro-2-methoxyphenyl)-3-[1-(cyclopentylmethyl)-4-piperidyl]propan-1-one], the “% Propidium Displacement” value in experiment [1] (setting [6]) was determined as 20%. Further, the Agonistic effect % in experiment [2] amounted to 12%.

Consider `COc1cc(N)c(F)cc1C(=O)CCC1CCN(CC2CCCCC2)CC1` [Compound 5, 1-(4-amino-5-fluoro-2-methoxyphenyl)-3-[1-(cyclohexylmethyl)-4-piperidyl]propan-1-one], for which, in experiment [1] (setting [6]), the “% Propidium Displacement” value worked out at 22%. Besides, in experiment [2], the Agonistic effect % worked out at 16%.

Turning to `COc1cc(N)c(Cl)cc1C(=O)NCC1CCN(CC2CCCCC2)CC1` [Compound 17, 4-amino-5-chloro-[[1-(cyclohexylmethyl)-4-piperidyl]methyl]-2-methoxybenzamide], in experiment [3], half-maximal inhibition (IC50) was put at 3730 nM. Moreover, the Ki in experiment [4] (0.1 nM [3H]-GR113808, guinea pig striatal membranes, read-out: Ki) worked out at 2.3 nM.

As to `COCCCN1CCC(NC(=O)c2cc(Cl)c(N)c3c2OCC3)CC1` [prucalopride, reference compound], the Agonistic effect % in experiment [2] is given as 100%.

For `COc1cc(N)c(Cl)cc1C(=O)CCC1CCN(CC2CCCCCC2)CC1` [Compound 12, 1-(4-amino-5-chloro-2-methoxyphenyl)-3-[1-(cycloheptylmethyl)-4-piperidyl]propan-1-one], the “% Propidium Displacement” value in experiment [1] (setting [6]) amounted to 20%. For the same molecule, the Agonistic effect % in experiment [2] was 21%.

Turning to `COc1cc(N)c(Br)cc1C(=O)CCC1CCN(CC2CCCCC2)CC1` [Compound 14, 1-(4-amino-5-bromo-2-methoxyphenyl)-3-[1-(cyclohexylmethyl)-4-piperidyl]propan-1-one], the “% Propidium Displacement” value in experiment [1] turned out to be 20%.

For `COc1cc(N)c(Cl)cc1C(=O)CCC1CCN(CCC2CCCCC2)CC1` [Compound 16, 1-(4-amino-5-chloro-2-methoxyphenyl)-3-[1-(cyclohexylethyl)-4-piperidyl]propan-1-one], the “% Propidium Displacement” value in experiment [1] worked out at 21%.

For the molecule `COc1cc(N)c(Cl)cc1C(=O)CCC1CCN(CC2CCCCC2)CC1` [Compound 9, 1-(4-amino-5-chloro-2-methoxyphenyl)-3-[1-(cyclohexylmethyl)-4-piperidyl]propan-1-one], the “% Propidium Displacement” value in experiment [1] (setting [6]) is on record as 22%. This molecule gave an Agonistic effect % in experiment [2] of 22%. The “dose of maximum effect on object recognition performance” value in experiment [5] stood at 0.3 mg/kg. For the same molecule, the “object recognition performance compared to the control batch” value in experiment [5] (24 hours intersession) was “improvement in object recognition performance compared to the control batch”.

In experiment [3], `CCCCN1CCC(CCC(=O)c2cc(Br)c(N)cc2OC)CC1` [Compound 2, 1-(4-amino-5-bromo-2-methoxyphenyl)-3-[1-butyl-4-piperidyl]propan-1-one] returned an IC50 of 445 nM. Moreover, in experiment [4], the Ki was determined as 8.9 nM.

On to `Nc1cc(OCCF)c(C(=O)CCC2CCN(CC3CCCCC3)CC2)cc1Cl` [Compound 23, 1-[4-amino-5-chloro-2-(2-fluoroéthoxy)phenyl]-3-[1-(cyclohexylmethyl)-4-piperidyl]propan-1-one], for which, in experiment [1] (setting [6]), the “% Propidium Displacement” value is listed as 22%.

Broadly, the IC50 is the concentration that inhibits the measured activity by half. Read a low IC50 as greater potency in that assay. As usually defined, the Ki is the equilibrium dissociation constant of an inhibitor or competing ligand from its target.
